Laboratory results from ChEMBL document CHEMBL5608200, “Design, synthesis, and evaluation of antitumor activity of 2-arylmethoxy-4-(2-fluoromethyl-biphenyl-3-ylmethoxy) benzylamine derivatives as PD-1/PD-l1 inhibitors” (Eur J Med Chem, 2024).
Calls of active or inactive are those of the source. No cut-off for these calls is given here.

What was measured:
[1] = Cytotoxicity against human PBMCs at 1 to 4 uM by CCK-8 assay; format: toxicity, cell-based; details: pbmc, dose 1-4 µM
MC-38 [2] = assay: Antiproliferative activity against mouse MC38 cells expressing hPD-L1 incubated for 48 hrs by CCK8 assay; details: MC-38, 48 h
MDA-MB-231 = assay: Cytotoxicity against human MDA-MB-231 cells at 1 to 32 uM incubated for 48 hrs by CCK-8 assay; format: functional, cell-based; details: dose 1-32 µM
[3] = Cmax in Sprague-Dawley rat at 10 mg/kg, iv measured upto 48 hrs by LC-MS/MS analysis; format: ADME, organism-based; details: in vivo
[4] = Half-life in Sprague-Dawley rat at 10 mg/kg, iv measured upto 48 hrs by LC-MS/MS analysis; format: ADME, organism-based; details: in vivo
[5] = Clearance in Sprague-Dawley rat at 10 mg/kg, iv measured upto 48 hrs by LC-MS/MS analysis; format: ADME, organism-based; details: in vivo
[6] = Clearance in Sprague-Dawley rat at 50 mg/kg, IG measured upto 48 hrs by LC-MS/MS analysis; format: ADME, organism-based; details: in vivo, po
MC-38 [7] = assay: Antitumor activity against mouse MC38 cells expressing hPD-L1 implanted in PD-1/PD-L1 humanized C57BL/6 mouse assessed as tumor growth inhibition at 50 mg/kg, IG; format: functional; details: MC-38, po, read-out: TGI
[8] = Toxicity in PD-1/PD-L1 humanized C57BL/6 mouse implanted with mouse MC38 cells expressing hPD-L1 assessed as animal death at 50 mg/kg, IG QD administered for 15 days; format: organism-based, MC-38; details: in vivo, po, 360 h, time 15 day
MC-38 [9] = assay: Antitumor activity against mouse MC38 cells expressing hPD-L1 implanted in PD-1/PD-L1 humanized C57BL/6 mouse assessed as increase in ratio of CD3+/CD8+ to CD3+/CD4+ cells at 50 mg/kg, IG QD administered for 15 days by flow cytometry analysis; format: functional, organism-based; details: time 15.0 day
MC-38 [10] = assay: Antitumor activity against mouse MC38 cells expressing hPD-L1 implanted in PD-1/PD-L1 humanized C57BL/6 mouse assessed as upregulation of CXCL9 mRNA expression at 50 mg/kg, IG QD administered for 15 days by RT-PCR analysis; format: functional, organism-based; details: time 15.0 day
MC-38 [11] = assay: Antitumor activity against mouse MC38 cells expressing hPD-L1 implanted in PD-1/PD-L1 humanized C57BL/6 mouse assessed as downregulation of PD-L1 mRNA expression at 50 mg/kg, IG QD administered for 15 days by RT-PCR analysis; format: functional, organism-based; details: time 15.0 day
[12] = Toxicity in PD-1/PD-L1 humanized C57BL/6 mouse implanted with mouse MC38 cells expressing hPD-L1 assessed as change in spleen morphology at 50 mg/kg, IG QD administered for 15 days by H and E staining based inverted fluorescent microscopic assay; format: organism-based, MC-38; details: in vivo, po, 360 h, time 15 day
[13] = Toxicity in PD-1/PD-L1 humanized C57BL/6 mouse implanted with mouse MC38 cells expressing hPD-L1 assessed as change in lung morphology at 50 mg/kg, IG QD administered for 15 days by H and E staining based inverted fluorescent microscopic assay; format: organism-based, MC-38; details: in vivo, po, 360 h, time 15 day
[14] = Toxicity in PD-1/PD-L1 humanized C57BL/6 mouse implanted with mouse MC38 cells expressing hPD-L1 assessed as change in kidney morphology at 50 mg/kg, IG QD administered for 15 days by H and E staining based inverted fluorescent microscopic assay; format: organism-based, MC-38; details: in vivo, po, 360 h, time 15 day

For N#Cc1cncc(COc2cc(OCc3cccc(-c4ccc5c(c4)OCCO5)c3C(F)F)ccc2CNCCO)c1, the Activity [1] was “Non-Toxic”, the IC50 (MC-38 [2]) was greater than 8 µM and the Activity (MDA-MB-231) was “inactive”. The Cmax [3] was 4560 ng/mL, the t1/2 [4] was 2.47 h and the CL [5] was 12 mL/min/kg. For the same compound, the CL [6] was 19.8 mL/min/kg, the inhibition in vivo at 50 mg/kg (MC-38 [7]) was 62.4% and the Activity [8] was “Non-Toxic”. The Activity (MC-38 [9]) was “Active”, the Activity (MC-38 [10]) was “Active” and the Activity (MC-38 [11]) was “Active”. The Activity [12] was “Non-Toxic”, the Activity [13] was “Non-Toxic” and the Activity [14] was “Non-Toxic”.
